“And” between values parts separate entries of the source, which are not always exact repeats. Identical values can stand only once. Like-named read-outs stand apart in the source and are kept apart here.
Legend:
[1] = tested on: Rhizoctonia solani; experiment: In vitro-Test with Rhizoctonia solani; format: cell-based
[2] = tested on: Fusarium culmorum; experiment: In vitro-Test with Fusarium culmorum; format: cell-based
[3] = tested on: Septoria tritici; experiment: In vivo preventive Septoria tritici test (wheat); settings: 21 days after inoculation; for pest or weed control at 40 ppm: 40 ppm a.i.
Protocol: After the spray coating has been dried, the plants are sprayed with a spore suspension of Septoria tritici.
The test is evaluated 21 days after the inoculation.

[4] = tested on: Sphaerotheca fuliginea; experiment: In vivo preventive test on Sphaerotheca (cucumbers); settings: Table D1, 7 days after inoculation
[5] = tested on: fish (Danio rerio) embryos; experiment: In vivo ecotoxicity screening test on fish (Danio rerio); settings: active compound alone; fish embryos, 96 h, 28.5° C.
Protocol: (§1) with ECxi the Effect Concentration (EC) of each chemical i (in ppm) causing x % effect on the ecotoxicity test endpoint.
(§2) For each compound combination, the predicted ECx value is calculated. It is then compared to an experimentally measured value. The ratio of predicted versus measured effect for the combination (thereafter called the Model Deviation Ratio or MDR) is then calculated.
(§3) The environmental effect of the compound combinations was measured experimentally in laboratory ecotoxicity screening studies with fish (Danio rerio). […] Mortality was recorded after 96 h for each tested concentration and a reference control. […] Then, the MDR values were calculated.
(§4) • Solvent: 0.5% by weight dimethyl sulfoxide
(§5) This concentrate is then diluted with water to the desired a.i. concentration, leading to a maximal solvent concentration of 0.5% by weight. The compounds alone and the combinations were tested for five increasing concentrations between 0.01 and 1000 ppm a.i., (e.g. 0.1, 1.0, 10 and 100 ppm a.i). For the combinations, compounds A and B were mixed in a weight ratio of 5:1 to 1:5 and five increasing concentrations were tested for each ratio.

[6] = tested on: Puccinia triticina; experiment: In vivo preventive Puccinia triticina test (wheat); settings: 8 days after inoculation; for pest or weed control at 20 ppm: 20 ppm a.i.; for pest or weed control at 40 ppm: 40 ppm a.i.; for pest or weed control at 80 ppm: 80 ppm a.i.
Protocol: After the spray coating has been dried, the plants are sprayed with a spore suspension of Puccinia triticina.
(§6) The test is evaluated 8 days after the inoculation.

[7] = tested on: Pyrenophora teres; experiment: In vitro-Test with Pyrenophora teres; format: cell-based
[8] = tested on: Venturia inaequalis; experiment: In vivo preventive test on Venturia (apples); settings: 10 days after inoculation
Protocol: The test is evaluated 10 days after the inoculation.

[9] = tested on: Ustilago avenae; experiment: In vitro-Test with Ustilago avenae; format: cell-based; settings: compound alone
[10] = tested on: Alternaria alternata; experiment: In vitro-Test with Alternaria alternata; format: cell-based
[11] = tested on: Septoria tritici; experiment: In vitro-Test with Septoria tritici; format: cell-based; settings: compound alone
[12] = tested on: Botrytis cinerea; experiment: In vitro-Test with Botrytis cinerea; format: cell-based
[13] = tested on: Blumeria graminis f.sp. hordei; experiment: In vivo preventive Blumeria test (barley); settings: 7 days after inoculation
[14] = In vivo ecotoxicity screening test on fish (Danio rerio); settings: Danio rerio, in vivo, other: exposure of embryos to the aqueous preparation
Protocol: as §1, §2, §3, §4, §5

[15] = tested on: Leptosphaeria nodorum; experiment: In vivo preventive Leptosphaeria nodorum test (wheat); settings: Table G1, 8 days after inoculation
Protocol: After the spray coating has been dried, the plants are sprayed with a spore suspension of Leptosphaeria nodorum.
as §6

[16] = tested on: Phakopsora pachyrhizi; experiment: In vivo preventive test on Phakopsora (soybeans); settings: Table C3, 7 days after inoculation
[17] = Zymoseptoria tritici, 504 h, read-out: Efficacy in % found
[18] = Puccinia triticina, 192 h, read-out: Efficacy in % found
[19] = Puccinia triticina, 192 h, Table H1, read-out: Efficacy in % found

CC(C)C1CCC(Cc2ccc(Cl)cc2)C1(O)Cn1cncn1 (stereo not shown) [Example 1.012, ipconazole]
Efficacy % ([1]; 0.04 ppm): 35% | Efficacy % ([1]; 0.2 ppm): 96% | Efficacy % ([2]; 0.04 ppm): 7% | Efficacy % ([2]; 0.2 ppm): 13% | Efficacy % ([2]; 1 ppm): 96% | Efficacy % ([2]; 5 ppm): 99% | pest or weed control at 20 ppm ([3]; Zymoseptoria tritici, 504 h, 20 ppm a.i., read-out: Efficacy in % found): 0% | pest or weed control at 40 ppm [3, 17]: 0% | pest or weed control at 80 ppm ([3]; Zymoseptoria tritici, 504 h, 80 ppm a.i., read-out: Efficacy in % found): 0% | Efficacy in % found ([4]; 2.5 ppm a.i.): 26% | Efficacy in % found ([4]; 5 ppm a.i.): 87% | Efficacy in % found ([4]; 10 ppm a.i.): 100% | Ecotoxicity LC50-96 h found [5]: 6.57 ppm a.i. | pest or weed control at 20 ppm [6, 18]: 0% | pest or weed control at 40 ppm [6, 18]: 44% | pest or weed control at 80 ppm [6, 18]: 100% | pest or weed control at 20 ppm [6, 19]: 0% | pest or weed control at 40 ppm [6, 19]: 67% | pest or weed control at 80 ppm [6, 19]: 89%

OC(Cc1ccccc1Cl)(Cn1nc[nH]c1=S)C1(Cl)CC1 (stereo not shown) [Example 1.018, prothioconazole]
Efficacy % ([7]; 0.2 ppm): 22% | Efficacy % ([2]; 0.2 ppm): 99% | Efficacy in % found ([3]; 25 ppm a.i.): 0% | Efficacy in % found ([3]; 50 ppm a.i.): 14% | Efficacy in % found ([3]; 100 ppm a.i.): 43% | Efficacy in % found ([4]; 2.5 ppm a.i.): 71% | Efficacy in % found ([4]; 5 ppm a.i.): 96% | Efficacy in % found ([4]; 10 ppm a.i.): 100% | Ecotoxicity LC50-96 h found [5]: 3.16 ppm a.i. | Efficacy in % found ([8]; Table E1, 2.5 ppm a.i.): 0% | Efficacy in % found ([8]; Table E1, 5 ppm a.i.): 30% | Efficacy in % found ([8]; Table E1, 10 ppm a.i.): 61% | Efficacy % ([9]; 1 ppm): 85% | Efficacy % ([9]; 5 ppm): 100% | Efficacy % ([10]; 0.04 ppm): 0% | Efficacy % ([10]; 0.2 ppm): 91% | Efficacy in % found ([6]; 25 ppm a.i.): 0% | Efficacy in % found ([6]; 50 ppm a.i.): 0% | Efficacy in % found ([6]; 100 ppm a.i.): 0% | Efficacy in % found ([6]; Table H1, 25 ppm a.i.): 0% | Efficacy in % found ([6]; Table H1, 50 ppm a.i.): 0% | Efficacy in % found ([6]; Table H1, 100 ppm a.i.): 0%

CCCN(CC)CC1COC2(CCC(C(C)(C)C)CC2)O1 (stereo not shown) [Example 1.020, spiroxamine]
Efficacy % ([11]; 0.8 ppm): 25% | Efficacy % ([11]; 4 ppm): 34% | pest or weed control at 62.5 ppm ([3]; Zymoseptoria tritici, 504 h, 62.5 ppm a.i., read-out: Efficacy in % found): 0% | pest or weed control at 125 ppm ([3]; Zymoseptoria tritici, 504 h, 125 ppm a.i., read-out: Efficacy in % found): 14% | pest or weed control at 250 ppm ([3]; Zymoseptoria tritici, 504 h, 250 ppm a.i., read-out: Efficacy in % found): 57% | Efficacy % ([12]; 4 ppm): 7% | Efficacy % ([12]; 20 ppm): 9% | Efficacy in % found ([4]; 25 ppm a.i.): 31% | Efficacy in % found ([4]; 50 ppm a.i.): 37% | Efficacy in % found ([4]; 100 ppm a.i.): 49% | Efficacy in % found ([13]; Table F2, 62.5 ppm a.i.): 33% | Efficacy in % found ([13]; Table F2, 125 ppm a.i.): 89% | Efficacy in % found ([13]; Table F2, 250 ppm a.i.): 100% | Ecotoxicity LC50-96 h found [5]: 14.81 ppm a.i. | Efficacy in % found ([8]; Table E1, 25 ppm a.i.): 0% | Efficacy in % found ([8]; Table E1, 50 ppm a.i.): 0% | Efficacy in % found ([8]; Table E1, 100 ppm a.i.): 14% | Efficacy % ([9]; 20 ppm): 12% | Efficacy % ([9]; 100 ppm): 100% | pest or weed control at 62.5 ppm ([6]; Puccinia triticina, 192 h, 62.5 ppm a.i., read-out: Efficacy in % found): 11% | pest or weed control at 125 ppm ([6]; Puccinia triticina, 192 h, 125 ppm a.i., read-out: Efficacy in % found): 33% | pest or weed control at 250 ppm ([6]; Puccinia triticina, 192 h, 250 ppm a.i., read-out: Efficacy in % found): 33%

Cn1cc(C(=O)Nc2ccc(F)cc2-c2ccc(Cl)c(Cl)c2)c(C(F)F)n1 [Example 2.002, bixafen]
Efficacy % ([7]; 0.2 ppm): 46% | Efficacy % ([7]; 1 ppm): 60% | Efficacy % ([7]; 5 ppm): 72% | Efficacy % ([12]; 1 ppm): 63% | Efficacy % ([12]; 5 ppm): 91% | Ecotoxicity LC50-96 h found [5]: 0.154 ppm a.i. | Efficacy % ([10]; 0.04 ppm): 55% | Efficacy % ([10]; 0.2 ppm): 84% and 57% | Efficacy % ([10]; 1 ppm): 88% | Efficacy in % found ([6]; Table H1, 25 ppm a.i.): 22% | Efficacy in % found ([6]; Table H1, 50 ppm a.i.): 33% | Efficacy in % found ([6]; Table H1, 100 ppm a.i.): 67%

O=C(NCCc1ncc(C(F)(F)F)cc1Cl)c1ccccc1C(F)(F)F [Example 2.005, fluopyram]
Efficacy % ([11]; 0.04 ppm): 43% and 22% | Efficacy % ([11]; 0.2 ppm): 93% and 67% | Efficacy in % found ([3]; 30 ppm a.i.): 38% and 29% | Efficacy in % found ([3]; 60 ppm a.i.): 88% and 71% | Efficacy in % found ([13]; Table F1, 15 ppm a.i.): 0% | Efficacy in % found ([13]; Table F1, 30 ppm a.i.): 0% | Efficacy in % found ([13]; Table F1, 60 ppm a.i.): 29% | Ecotoxicity LC50-96 h found [5]: >200 ppm a.i. | Efficacy % ([9]; 5 ppm): 0% | Efficacy in % found ([6]; 15 ppm a.i.): 0% | Efficacy in % found ([6]; 30 ppm a.i.): 0% | Efficacy in % found ([6]; 60 ppm a.i.): 0% | Efficacy in % found ([6]; Table H1, 15 ppm a.i.): 0% | Efficacy in % found ([6]; Table H1, 30 ppm a.i.): 0% | Efficacy in % found ([6]; Table H1, 60 ppm a.i.): 33%

CC(O)(Cn1cncn1)c1ccc(Oc2ccc(Cl)cc2)nc1C(F)(F)F (stereo not shown) [I.01, 2-[6-(4-chlorophenoxy)-2-(trifluoromethyl)pyridin-3-yl]-1-(1H-1,2,4-triazol-1-yl)propan-2-ol]
pest or weed control at 40 ppm [3, 17]: 63% | LC50 at 96 h [14]: 6.21 µg/mL | pest or weed control at 20 ppm [6, 18]: 30% | pest or weed control at 40 ppm [6, 18]: 50% | pest or weed control at 80 ppm [6, 18]: 60%

CC(O)(Cn1cncn1)c1ccc(Oc2ccc(Br)cc2)nc1C(F)(F)F (stereo not shown) [I.59, 2-[6-(4-bromophenoxy)-2-(trifluoromethyl)pyridin-3-yl]-1-(1H-1,2,4-triazol-1-yl)propan-2-ol]
LC50 at 96 h [14]: 6 µg/mL

mancozeb [Example 5.013]
Efficacy in % found ([15]; 250 ppm a.i.): 14% | Efficacy in % found ([15]; 500 ppm a.i.): 14% | Efficacy in % found ([15]; 1000 ppm a.i.): 14% | Efficacy % ([7]; 20 ppm): 81% | Efficacy % ([7]; 100 ppm): 83% | Efficacy in % found ([16]; 12.5 ppm a.i.): 23% | Efficacy in % found ([16]; 25 ppm a.i.): 45% | Efficacy in % found ([16]; 50 ppm a.i.): 90% | Efficacy % ([1]; 4 ppm, compound alone): 57% | Efficacy % ([1]; 20 ppm, compound alone): 99% | Efficacy in % found ([3]; 250 ppm a.i.): 29% | Efficacy in % found ([3]; 500 ppm a.i.): 29% | Efficacy in % found ([3]; 1000 ppm a.i.): 29% | Efficacy in % found ([8]; Table E2, 12.5 ppm a.i.): 0% | Efficacy in % found ([8]; Table E2, 25 ppm a.i.): 18% | Efficacy in % found ([8]; Table E2, 50 ppm a.i.): 95%

Source: patent US20200008426A1, “ACTIVE COMPOUND COMBINATIONS” (BAYER AKTIENGESELLSCHAFT, priority 2017, published 2020)
